Paper PMC12274840 (The Journal of Biological Chemistry, 2025)
Where “and” joins values, the source holds several entries; their conditions need not be identical. Equal values may be shown once. Read-outs that look alike come from different tables or passages of the source.

Experiments:
[1] = tested on: E. coli KA797 cells carrying pUK21 with TEM-1 Y105R; type: cell-based, Escherichia coli; settings: in combination with 100 μg/ml carbenicillin
[2] = tested on: E. coli KA797 cells carrying pUK21 with CTX-M-14 Y105G; type: cell-based, Escherichia coli; settings: in combination with 100 μg/ml carbenicillin
CTX-M-14 Y105G = molecular target: T1, CTX-M-14 Y105G (Escherichia coli, UniProt Q9L5C7, Y108G); assay: biochemical
T1 construct: 29 to 291 of CTX-M-14 (Q9L5C7); His tag with TEV cleavage site (N); made in house; host or cells: E. coli BL21 (DE3) pLysS

[3] = tested on: E. coli KA797 cells carrying BlaC position 105 library; type: cell-based, Escherichia coli; settings: for Fi AVG (average fitness): average of replicates
CTX-M-14 WT = molecular target: T2, CTX-M-14 WT (Escherichia coli, UniProt Q9L5C7); assay: biochemical
T2 construct: 29 to 291 of CTX-M-14 (Q9L5C7); His tag with TEV cleavage site (N); made in house; host or cells: E. coli BL21 (DE3) pLysS

[4] = tested on: E. coli KA797 cells carrying pUK21 with BlaC I105R; type: cell-based, Escherichia coli; settings: in combination with 100 μg/ml carbenicillin
[5] = tested on: E. coli KA797 cells carrying pUK21 with BlaC I105G; type: cell-based, Escherichia coli; settings: in combination with 100 μg/ml carbenicillin
[6] = tested on: E. coli KA797 cells carrying pUK21 with CTX-M-14 WT (Tat); assay: microbe, parasite or virus in culture; type: cell-based; settings: in combination with 100 μg/ml carbenicillin
[7] = tested on: E. coli KA797 cells carrying pUK21 with TEM-1 Y105G; type: cell-based, Escherichia coli; settings: in combination with 100 μg/ml carbenicillin
TEM-1 Y105G = TEM-1 Y105G (Escherichia coli, UniProt P62593, Y103G); assay: In vitro inhibition of nitrocefin hydrolysis and simulation of inhibition curves, TEM-1 Y105G; type: biochemical; settings: avibactam, simulation Eq 3/9
[8] = tested on: E. coli KA797 cells carrying pUK21 with NmcA (pelB/Sec); assay: microbe, parasite or virus in culture; type: cell-based; settings: in combination with 25 μg/ml carbenicillin
[9] = tested on: E. coli KA797 cells carrying pUK21 with BlaC WT (Tat); assay: microbe, parasite or virus in culture; type: cell-based; settings: in combination with 100 μg/ml carbenicillin
BlaC WT = molecular target: T3, BlaC WT (Mycobacterium tuberculosis, UniProt P9WKD3); type: biochemical
T3 construct: correspond to residue numbers 41-307 of BlaC (Uniprot entry P9WKD3-1); His tag with TEV cleavage site (N); made in house; host or cells: E. coli BL21 (DE3) pLysS
T3 sequence (P9WKD3 41-307): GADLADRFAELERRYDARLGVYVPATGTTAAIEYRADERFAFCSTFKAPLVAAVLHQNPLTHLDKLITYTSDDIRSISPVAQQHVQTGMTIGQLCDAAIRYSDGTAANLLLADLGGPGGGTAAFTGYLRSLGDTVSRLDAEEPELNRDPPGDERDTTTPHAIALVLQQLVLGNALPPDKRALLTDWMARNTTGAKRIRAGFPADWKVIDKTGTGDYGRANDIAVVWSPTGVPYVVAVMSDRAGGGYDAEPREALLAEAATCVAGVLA

TEM-1 WT = TEM-1 WT (Escherichia coli, UniProt P62593); type: biochemical; design: 24 to 286 of TEM-1 (P62593); His tag with TEV cleavage site (N); made in house; host or cells: E. coli BL21 (DE3) pLysS; settings: avibactam, TEM-1 WT
[10] = tested on: E. coli KA797 cells carrying pUK21 with TEM-1 WT (Sec); assay: microbe, parasite or virus in culture; type: cell-based; settings: in combination with 100 μg/ml carbenicillin
[11] = tested on: E. coli KA797 cells carrying pUK21 with KPC-2 (Tat); assay: microbe, parasite or virus in culture; type: cell-based; settings: in combination with 100 μg/ml carbenicillin
[12] = tested on: E. coli KA797 cells carrying pUK21 with CTX-M-14 Y105R; type: cell-based, Escherichia coli; settings: in combination with 100 μg/ml carbenicillin
[13] = avibactam, simulation Eq 3/9, CTX-M-14 Y105G
[14] = avibactam, simulation Eq 3/9, CTX-M-14 WT

NC(=O)[C@@H]1CC[C@@H]2CN1C(=O)N2OS(=O)(=O)O [avibactam] gave an MIC of inhibitor [1] of 4 µg/mL, an MIC of inhibitor [2] of 2 µg/mL and a Ki (CTX-M-14 Y105G) of 50 µM. For the same compound, the k2 (CTX-M-14 Y105G; [13]) was 4.6 10^−2 s^−1, the k-2 (CTX-M-14 Y105G; [13]) was 0.25 10^−3 s^−1 and the “Fi AVG (average fitness)” value ([3]; AA 105 Ala (BlaC I105A), relative to WT Ile) was 0.716. The “Significance of average fitness” value ([3]; AA 105 Arg (BlaC I105R)) was “+”, the “Fi AVG (average fitness)” value ([3]; AA 105 Arg (BlaC I105R), relative to WT Ile) was 2.021 and the “Fi AVG (average fitness)” value ([3]; AA 105 Asn (BlaC I105N), relative to WT Ile) was -0.462. For the same compound, the “Fi AVG (average fitness)” value ([3]; AA 105 Asp (BlaC I105D), relative to WT Ile) was 0.306, the “Fi AVG (average fitness)” value ([3]; AA 105 Cys (BlaC I105C), relative to WT Ile) was 0.512 and the “Significance of average fitness” value ([3]; AA 105 Gln (BlaC I105Q)) was “+”. For the same compound, the “Fi AVG (average fitness)” value ([3]; AA 105 Gln (BlaC I105Q), relative to WT Ile) was 1.438, the “Fi AVG (average fitness)” value ([3]; AA 105 Glu (BlaC I105E), relative to WT Ile) was 0.205 and the “Significance of average fitness” value ([3]; AA 105 Gly (BlaC I105G)) was “+”. For the same compound, the “Fi AVG (average fitness)” value ([3]; AA 105 Gly (BlaC I105G), relative to WT Ile) was 2.428, the “Fi AVG (average fitness)” value ([3]; AA 105 His (BlaC I105H), relative to WT Ile) was 0.810 and the “Fi AVG (average fitness)” value ([3]; AA 105 Ile (BlaC WT, reference)) was 0.000. For the same compound, the “Significance of average fitness” value ([3]; AA 105 Leu (BlaC I105L)) was “+”, the “Fi AVG (average fitness)” value ([3]; AA 105 Leu (BlaC I105L), relative to WT Ile) was 1.665 and the “Significance of average fitness” value ([3]; AA 105 Lys (BlaC I105K)) was “+”. The “Fi AVG (average fitness)” value ([3]; AA 105 Lys (BlaC I105K), relative to WT Ile) was 0.933, the “Fi AVG (average fitness)” value ([3]; AA 105 Met (BlaC I105M), relative to WT Ile) was 0.542 and the “Significance of average fitness” value ([3]; AA 105 Phe (BlaC I105F)) was “+”. The “Fi AVG (average fitness)” value ([3]; AA 105 Phe (BlaC I105F), relative to WT Ile) was 2.659, the “Significance of average fitness” value ([3]; AA 105 Pro (BlaC I105P)) was “-” and the “Fi AVG (average fitness)” value ([3]; AA 105 Pro (BlaC I105P), relative to WT Ile) was -1.222. For the same compound, the “Significance of average fitness” value ([3]; AA 105 Ser (BlaC I105S)) was “+”, the “Fi AVG (average fitness)” value ([3]; AA 105 Ser (BlaC I105S), relative to WT Ile) was 1.393 and the “Significance of average fitness” value ([3]; AA 105 Thr (BlaC I105T)) was “+”. For the same compound, the “Fi AVG (average fitness)” value ([3]; AA 105 Thr (BlaC I105T), relative to WT Ile) was 1.333, the “Significance of average fitness” value ([3]; AA 105 Trp (BlaC I105W)) was “+” and the “Fi AVG (average fitness)” value ([3]; AA 105 Trp (BlaC I105W), relative to WT Ile) was 2.468. The “Significance of average fitness” value ([3]; AA 105 Tyr (BlaC I105Y)) was “+”, the “Fi AVG (average fitness)” value ([3]; AA 105 Tyr (BlaC I105Y), relative to WT Ile) was 3.416 and the “Fi AVG (average fitness)” value ([3]; AA 105 Val (BlaC I105V), relative to WT Ile) was -0.187. For the same compound, the “WT abs Fi 1” value ([3]; absolute fitness of BlaC WT (Ile 105), replicate 1) was -1.354, the “WT abs Fi 2” value ([3]; absolute fitness of BlaC WT (Ile 105), replicate 2) was -1.584 and the “WT abs Fi 3” value ([3]; absolute fitness of BlaC WT (Ile 105), replicate 3) was -0.942. The Ki (CTX-M-14 WT) was 0.47 µM, the k2 (CTX-M-14 WT; [14]) was 6.6 10^−2 s^−1 and the k-2 (CTX-M-14 WT; [14]) was 0.3 10^−3 s^−1. The k1 (CTX-M-14 WT; avibactam, simulation Eq 9, CTX-M-14 WT) was 1e+06 M⁻¹ s⁻¹, the MIC of inhibitor [4] was 64 µg/mL and the MIC of inhibitor [5] was 32 µg/mL. For the same compound, the MIC of inhibitor [6] was 0.5 µg/mL, the MIC of inhibitor [7] was 16 µg/mL and the k2 (TEM-1 Y105G) was 5 10^−2 s^−1. The k-2 (TEM-1 Y105G) was 0.75 10^−3 s^−1, the MIC of inhibitor [8] was 0.5 µg/mL and the MIC of inhibitor [9] was 16 µg/mL. The k2 (BlaC WT) was 6.5 and 6.5 10^−2 s^−1, the k-2 (BlaC WT) was 0.1 and 0.1 10^−3 s^−1 and the k2 (TEM-1 WT; simulation Eq 3/9) was 5.7 10^−2 s^−1. For the same compound, the k-2 (TEM-1 WT; simulation Eq 3/9) was 0.2 10^−3 s^−1, the k1 (TEM-1 WT; simulation Eq 9) was 1e+06 M⁻¹ s⁻¹ and the MIC of inhibitor [10] was 1 µg/mL. For the same compound, the MIC of inhibitor [11] was 0.5 µg/mL and the MIC of inhibitor [12] was 1 µg/mL.
